Where two headings read alike, the source gives them in different places.
Assays:
[1] = system: E. coli S30 extract (bacterial protein synthesis); test: E. coli S30 extract coupled transcription-translation luciferase assay (inhibition of bacterial protein synthesis); assay type: biochemical; details: class by IC50 or % inhibition @ 1 μM, read-out: S30 IC50 (μM/% inhib.)
How it was run: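 Luminescent read-out of luciferase made from pBESTluc DNA by E. coli S30 extract after 1 h at 37 °C with compound in an 8-point 2-fold series. Background came from no-DNA reactions. Percent inhibition was calculated against water-only controls.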

E. coli (Ec) = test: Broth microdilution minimum inhibitory concentration (MIC); assay type: cell-based; details: Escherichia coli, E. coli, read-out: E. coli + bicarb MIC
How it was run: (§1)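 MICs were run in triplicate per CLSI microdilution (modified, 8 dilution steps), inoculating 5×10^4 CFU/well prepared from colonies grown at 35±2° C to 0.5 McFarland. Media: CAMHB alone, with 6.25 or 25 mM final sodium bicarbonate, or with 0–50% heat-inactivated human serum.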

S. aureus (Sa) = test: as above; assay type: cell-based; details: Staphylococcus aureus, S. aureus, read-out: Sa + bicarb MIC
How it was run: as §1

E. faecalis (Ef) = test: as above; assay type: cell-based; details: Enterococcus faecalis, E. faecalis, read-out: Ef + bicarb MIC
How it was run: as §1

A. baumannii (Ab) = test: as above; assay type: cell-based; details: Acinetobacter baumannii, A. baumannii, read-out: Ab + bicarb MIC
How it was run: as §1

P. aeruginosa (Pa) = test: as above; assay type: cell-based; details: Pseudomonas aeruginosa, P. aeruginosa, read-out: Pa MIC + bicarb
How it was run: as §1

[2] = molecular target: Rabbit Reticulocyte Lysate (eukaryotic protein synthesis); test: Rabbit reticulocyte lysate luciferase assay (inhibition of eukaryotic protein synthesis); assay type: biochemical; details: class by IC50 or % inhibition @ 1 μM, read-out: Rabbit reticulocyte IC50 (μM/% inhib.)
How it was run: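 Compounds were tested in 8-point 2-fold dilution series for blocking luciferase synthesis in nuclease-treated rabbit reticulocyte lysate (30° C., 90 minutes). Luminescence read-out, corrected by no-RNA background, was expressed as % inhibition against water-only reactions.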

[3] = growth medium supplemented with sodium bicarbonate
[4] = growth medium with sodium bicarbonate

Structure (SMILES) | IC50 [1] | MIC (E. coli (Ec); [3]) | MIC (S. aureus (Sa); [3]) | MIC (E. faecalis (Ef); [3]) | MIC (A. baumannii (Ab); [3]) | MIC (P. aeruginosa (Pa); [3]) | IC50 [2] | MIC (E. coli (Ec); [4]) | MIC (S. aureus (Sa); [4]) | MIC (E. faecalis (Ef); [4]) | MIC (A. baumannii (Ab); [4]) | MIC (P. aeruginosa (Pa); [4])
CC(C)(N)C(=O)N1CCN(C(=O)Nc2ccn(-c3cccc(CCN4CC[C@H](CN)C4)c3)c(=O)n2)CC1 (stereo in doubt) [Compound 24] | < 0.5 µM | 8 to 32 µg/mL | 8 to 32 µg/mL | > 32 µg/mL | > 32 µg/mL | > 32 µg/mL | > 1 µM |  |  |  |  | 
C[C@@H]1CCN(CCc2ccc(-n3ccc(NC(=O)N4CCN(C(=O)[C@](C)(N)CO)CC4)nc3=O)cc2)CC[C@H]1N (stereo in doubt) [Compound 28] | < 0.5 µM | < 8 µg/mL | < 8 µg/mL | < 8 µg/mL | > 32 µg/mL | > 32 µg/mL | > 1 µM |  |  |  |  | 
CC(C)(N)C(=O)N1CCN(C(=O)Nc2ccn(-c3ccc(CCN[C@H]4CC[C@@H](CN)C4)cc3)c(=O)n2)CC1 (stereo in doubt) [Compound 177] | > 1 µM |  |  |  |  |  | > 1 µM | < 8 µg/mL | < 8 µg/mL | > 32 µg/mL | > 32 µg/mL | > 32 µg/mL
CN(CCc1ccc(-n2ccc(NC(=O)N3CCN(C(=O)C(C)(C)N)CC3)nc2=O)cc1)[C@H]1CC[C@@H](CN)C1 (stereo in doubt) [Compound 178] | > 1 µM |  |  |  |  |  | > 1 µM | < 8 µg/mL | 8 to 32 µg/mL | > 32 µg/mL | > 32 µg/mL | > 32 µg/mL
CC[C@@H]1CN(Cc2ccc(-n3ccc(NC(=O)N4CCN(C(=O)C(C)(C)N)CC4)nc3=O)cc2)CC[C@H]1N (stereo in doubt) [Compound 213] | < 0.5 µM |  |  |  |  |  | > 1 µM | < 8 µg/mL | < 8 µg/mL | < 8 µg/mL | > 32 µg/mL | > 32 µg/mL
CC(C)(N)C(=O)N1CCN(C(=O)Nc2ccn(-c3ccc(CCN4CCCC(N)CC4)cc3)c(=O)n2)CC1 (stereo not drawn) [Compound 21] | < 0.5 µM | < 8 µg/mL | < 8 µg/mL | < 8 µg/mL | > 32 µg/mL | 8 to 32 µg/mL | > 1 µM |  |  |  |  | 
CCC(N)C1CCCN(CCc2ccc(-n3ccc(NC(=O)N4CCN(C(=O)C(C)(C)N)CC4)nc3=O)cc2)C1 (stereo not drawn) [Compound 23] | > 1 µM | < 8 µg/mL | 8 to 32 µg/mL | > 32 µg/mL | > 32 µg/mL | > 32 µg/mL | > 1 µM |  |  |  |  | 
CC(C)(N)C(=O)N1CCN(C(=O)Nc2ccn(-c3ccc(CCN4CCC[C@@H](CN)C4)cc3)c(=O)n2)CC1 [Compound 25] | 0.5 to 1 µM | < 8 µg/mL | < 8 µg/mL | > 32 µg/mL | > 32 µg/mL | > 32 µg/mL | > 1 µM |  |  |  |  | 
CC(C)(N)C(=O)N1CCN(C(=O)Nc2ccn(-c3ccc(CCN4CCC[C@H](CN)C4)cc3)c(=O)n2)CC1 [Compound 26] | < 0.5 µM | < 8 µg/mL | < 8 µg/mL | 8 to 32 µg/mL | > 32 µg/mL | > 32 µg/mL | > 1 µM |  |  |  |  | 
C[C@@H]1CCN(CCc2ccc(-n3ccc(NC(=O)N4CCN(C(=O)C(C)(C)N)CC4)nc3=O)cc2)CC[C@H]1N [Compound 27] | < 0.5 µM | < 8 µg/mL | < 8 µg/mL | < 8 µg/mL | > 32 µg/mL | 8 to 32 µg/mL | > 1 µM |  |  |  |  | 
CC(C)(N)C(=O)N1CCN(C(=O)Nc2ccn(-c3ccc(CCN4CCCC(NC5CC5)CC4)cc3)c(=O)n2)CC1 (stereo not drawn) [Compound 29] | > 1 µM | < 8 µg/mL | 8 to 32 µg/mL | > 32 µg/mL | > 32 µg/mL | > 32 µg/mL | > 1 µM |  |  |  |  | 
CC(C)(N)C(=O)N1CCN(C(=O)Nc2ccn(-c3ccc(CCNC4CCCNCC4)cc3)c(=O)n2)CC1 (stereo not drawn) [Compound 30] | < 0.5 µM | < 8 µg/mL | < 8 µg/mL | > 32 µg/mL | > 32 µg/mL | > 32 µg/mL | > 1 µM |  |  |  |  | 
CC(C)(N)C(=O)N1CCN(C(=O)Nc2ccn(-c3ccc(CCCN4CCCC(N)CC4)cc3)c(=O)n2)CC1 (stereo not drawn) [Compound 31] | < 0.5 µM | < 8 µg/mL | < 8 µg/mL | 8 to 32 µg/mL | > 32 µg/mL | > 32 µg/mL | > 1 µM |  |  |  |  | 
CC(C)(N)C(=O)N1CCN(C(=O)Nc2ccn(-c3ccc(CCCN4CC(N)C4)cc3)c(=O)n2)CC1 [Compound 32] | > 1 µM | 8 to 32 µg/mL | 8 to 32 µg/mL | > 32 µg/mL | > 32 µg/mL | > 32 µg/mL | > 1 µM |  |  |  |  | 
CNC1CCCN(CCc2ccc(-n3ccc(NC(=O)N4CCN(C(=O)C(C)(C)N)CC4)nc3=O)cc2)CC1 (stereo not drawn) [Compound 33] | 0.5 to 1 µM | < 8 µg/mL | 8 to 32 µg/mL | > 32 µg/mL | > 32 µg/mL | > 32 µg/mL | > 1 µM |  |  |  |  | 
CC(N)C1CCN(CCc2cccc(-n3ccc(NC(=O)N4CCN(C(=O)C(C)(C)N)CC4)nc3=O)c2)CC1 (stereo not drawn) [Compound 34] | < 0.5 µM | < 8 µg/mL | < 8 µg/mL | < 8 µg/mL | > 32 µg/mL | > 32 µg/mL | > 1 µM |  |  |  |  | 
C[C@@](N)(CO)C(=O)N1CCN(C(=O)Nc2ccn(-c3ccc(CCN4CCCC(N)CC4)cc3)c(=O)n2)CC1 (stereo partly drawn) [Compound 35] | > 1 µM | < 8 µg/mL | < 8 µg/mL | < 8 µg/mL | > 32 µg/mL | 8 to 32 µg/mL | > 1 µM |  |  |  |  | 
CC(C)(N)C(=O)N1CCN(C(=O)Nc2ccn(-c3ccc(CN4CCC(N)CC4)cc3)c(=O)n2)CC1 [Compound 57] | < 0.5 µM | < 8 µg/mL | < 8 µg/mL | 8 to 32 µg/mL | > 32 µg/mL | > 32 µg/mL | > 1 µM |  |  |  |  | 
C[C@@H]1CN(C(=O)C(C)(C)N)CCN1C(=O)Nc1ccn(-c2ccc(CN3CCC(N)CC3)cc2)c(=O)n1 [Compound 61] | < 0.5 µM | < 8 µg/mL | < 8 µg/mL | 8 to 32 µg/mL | > 32 µg/mL | > 32 µg/mL | > 1 µM |  |  |  |  | 
CC(C)(N)C(=O)N1CCN(C(=O)Nc2ccn(-c3ccc(CN4CCC(N)CC4)cc3)c(=O)n2)C(CO)C1 (stereo not drawn) [Compound 62] | < 0.5 µM | < 8 µg/mL | > 32 µg/mL | > 32 µg/mL | > 32 µg/mL | > 32 µg/mL | > 1 µM |  |  |  |  | 
CC(N)C1CCN(Cc2ccc(-n3ccc(NC(=O)N4CCN(C(=O)[C@@](C)(N)CO)[C@H](C)C4)nc3=O)cc2)CC1 (stereo partly drawn) [Compound 70] | < 0.5 µM | < 8 µg/mL | < 8 µg/mL | < 8 µg/mL | > 32 µg/mL | > 32 µg/mL | > 1 µM |  |  |  |  | 
C[C@@H]1CN(C(=O)Nc2ccn(-c3ccc(CCN4CCCC(N)CC4)cc3)c(=O)n2)CCN1C(=O)C(C)(C)N (stereo partly drawn) [Compound 71] | < 0.5 µM | < 8 µg/mL | < 8 µg/mL | < 8 µg/mL | < 8 µg/mL | 8 to 32 µg/mL | > 1 µM |  |  |  |  | 
C[C@@H]1CN(C(=O)Nc2ccn(-c3ccc(CN4CCC(N)CC4)cc3)c(=O)n2)CCN1C(=O)C(C)(C)N [Compound 79] | < 0.5 µM | < 8 µg/mL | < 8 µg/mL | 8 to 32 µg/mL | > 32 µg/mL | > 32 µg/mL | > 1 µM |  |  |  |  | 
C[C@@H]1CN(C(=O)C(C)(C)N)CCN1C(=O)Nc1ccn(-c2ccc(CN3CCC(CN)CC3)cc2)c(=O)n1 [Compound 82] | < 0.5 µM | < 8 µg/mL | < 8 µg/mL | < 8 µg/mL | 8 to 32 µg/mL | > 32 µg/mL | > 1 µM |  |  |  |  | 

From patent US12503452B2 (Curza Global, LLC, priority 2019, dated 2025)
